Calls of active or inactive are those of the source. The rule behind the calls is not given here.
Tests used:
[1] = target: Quadruplex DNA; experiment: Displacement of ThT from human G4-quadruplex c-kit2 DNA 5'- CGGGCGGGCGCGAGGGAGGGT-3' incubated for 0.5 hrs by SpectraMax M2 microplate reader analysis; type: nucleic-acid assay
[2] = target: Quadruplex DNA; experiment: Displacement of ThT from human G4-quadruplex Bcl2 DNA 5'- CGGGCGCGGGAGGAAGGGGGCGGGAGC-3' incubated for 0.5 hrs by SpectraMax M2 microplate reader analysis; type: nucleic-acid assay
[3] = system: A-375; experiment: Inhibition of DNA synthesis in human A-375 cells at 5 uM incubated for 24 hrs by Edu incorporation based flow cytometry analysis; type: functional, cell-based
[4] = system: Quadruplex DNA; experiment: Binding affinity to human G4-quadruplex Oxy28 DNA 5'- GGGGTTTTGGGGTTTTGGGGTTTTGGGG -3' at 10 uM by CD spectra analysis; type: nucleic-acid assay
[5] = system: Quadruplex DNA; experiment: Binding affinity to human G4-quadruplex VEGF DNA 5'- GGGCGGGCCGGGGGCGGG-3' at 20 uM by UV-Visible absorption spectroscopic analysis; type: nucleic-acid assay
[6] = system: Quadruplex DNA; experiment: Binding affinity to human G4-quadruplex KRAS DNA 5'- AGGGCGGTGTGGGAAGAGGGAAGAGGGGGAGG-3' at 20 uM by UV-Visible absorption spectroscopic analysis; type: nucleic-acid assay
[7] = system: Quadruplex DNA; experiment: Binding affinity to human G4-quadruplex 22AG DNA 5'- AGGGTTAGGGTTAGGGTTAGGG -3' at 20 uM by UV-Visible absorption spectroscopic analysis; type: nucleic-acid assay
[8] = system: A-375; experiment: Inhibition of RNA synthesis in human A-375 cells at 5 uM incubated for 24 hrs by EU incorporation based flow cytometry analysis; type: functional, cell-based
[9] = system: Quadruplex DNA; experiment: Binding affinity to human G4-quadruplex Bcl2 DNA 5'- CGGGCGCGGGAGGAAGGGGGCGGGAGC-3' at 20 uM by UV-Visible absorption spectroscopic analysis; type: nucleic-acid assay
[10] = system: A-375; experiment: Induction of cell cycle arrest in human A-375 cells assessed assessed as cell accumulation at G0/G1 phase at 5 uM incubated for 24 hrs by propidium iodide staining based flow cytometry (reference value: 54.25 %); type: functional
[11] = system: Calf thymus DNA; experiment: Displacement of Hoechst 33342 from calf thymus DNA incubated for 0.5 hrs by SpectraMax M2 microplate reader analysis; type: nucleic-acid assay, Bos taurus
[12] = target: dsDNA; experiment: Displacement of Hoechst 33342 from double stranded DNA ssab (unknown origin) incubated for 0.5 hrs by SpectraMax M2 microplate reader analysis; type: nucleic-acid assay
[13] = system: A-375; experiment: Induction of apoptosis in human A-375 cells assessed assessed as early apoptotic cells at 5 uM incubated for 24 hrs by Annexin V-Elab Fluor 647/propidium iodide staining based flow cytometry (reference value: 1.14 %); type: functional
[14] = target: Quadruplex DNA; experiment: Displacement of ThT from human G4-quadruplex KRAS DNA 5'- AGGGCGGTGTGGGAAGAGGGAAGAGGGGGAGG-3' incubated for 0.5 hrs by SpectraMax M2 microplate reader analysis; type: nucleic-acid assay
[15] = system: A-375; experiment: Induction of DNA damage in human A-375 cells assessed as appearance of long DNA tails at 5 uM incubated for 24 hrs by comet assay; type: functional, cell-based
[16] = target: Salmon testes DNA; experiment: Displacement of Hoechst 33342 from salmon sperm DNA incubated for 0.5 hrs by SpectraMax M2 microplate reader analysis; type: nucleic-acid assay, Salmo salar
[17] = target: Quadruplex DNA; experiment: Displacement of ThT from human G4-quadruplex VEGF DNA 5'- GGGCGGGCCGGGGGCGGG-3' incubated for 0.5 hrs by SpectraMax M2 microplate reader analysis; type: nucleic-acid assay
[18] = system: A-375; experiment: Induction of cell cycle arrest in human A-375 cells assessed assessed as cell accumulation at S phase at 5 uM incubated for 24 hrs by propidium iodide staining based flow cytometry (reference value: 30.05 %); type: functional
[19] = target: Quadruplex DNA; experiment: Displacement of ThT from human G4-quadruplex Oxy28 DNA 5'- GGGGTTTTGGGGTTTTGGGGTTTTGGGG -3' incubated for 0.5 hrs by SpectraMax M2 microplate reader analysis; type: nucleic-acid assay
[20] = system: A-375; experiment: Induction of cell cycle arrest in human A-375 cells assessed assessed as cell accumulation at G2/M phase at 5 uM incubated for 24 hrs by propidium iodide staining based flow cytometry (reference value: 15.70 %); type: functional
[21] = system: Quadruplex DNA; experiment: Binding affinity to human G4-quadruplex c-kit2 DNA 5'- CGGGCGGGCGCGAGGGAGGGT-3' at 20 uM by UV-Visible absorption spectroscopic analysis; type: nucleic-acid assay
[22] = system: Quadruplex DNA; experiment: Binding affinity to human G4-quadruplex Pu27 DNA 5'- TGGGGAGGGTGGGGAGGGTGGGGAAGG-3' at 20 uM by UV-Visible absorption spectroscopic analysis; type: nucleic-acid assay
[23] = system: Quadruplex DNA; experiment: Binding affinity to human G4-quadruplex KRAS DNA 5'- AGGGCGGTGTGGGAAGAGGGAAGAGGGGGAGG-3' at 10 uM by CD spectra analysis; type: nucleic-acid assay
[24] = system: Quadruplex DNA; experiment: Binding affinity to human G4-quadruplex Oxy28 DNA 5'- GGGGTTTTGGGGTTTTGGGGTTTTGGGG -3' at 20 uM by UV-Visible absorption spectroscopic analysis; type: nucleic-acid assay
[25] = target: Quadruplex DNA; experiment: Displacement of ThT from human G4-quadruplex Pu27 DNA 5'- TGGGGAGGGTGGGGAGGGTGGGGAAGG-3' incubated for 0.5 hrs by SpectraMax M2 microplate reader analysis; type: nucleic-acid assay
[26] = system: A-375; experiment: Induction of apoptosis in human A-375 cells assessed assessed as late apoptotic cells at 5 uM incubated for 24 hrs by Annexin V-Elab Fluor 647/propidium iodide staining based flow cytometry (reference value: 6.31 %); type: functional
[27] = target: Quadruplex DNA; experiment: Displacement of ThT from human G4-quadruplex 22AG DNA 5'- AGGGTTAGGGTTAGGGTTAGGG -3' incubated for 0.5 hrs by SpectraMax M2 microplate reader analysis; type: nucleic-acid assay
[28] = system: A-375; experiment: Induction of apoptosis in human A-375 cells assessed assessed as viable cells at 5 uM incubated for 24 hrs by Annexin V-Elab Fluor 647/propidium iodide staining based flow cytometry (reference value: 91.1 %); type: functional; details: read-out: Activity
[29] = system: dsDNA; experiment: Binding affinity to double stranded DNA ssab (unknown origin) at 20 uM by UV-Visible absorption spectroscopic analysis; type: nucleic-acid assay
[30] = system: A-375; experiment: Induction of apoptosis in human A-375 cells assessed assessed as necrotic cells at 5 uM incubated for 24 hrs by Annexin V-Elab Fluor 647/propidium iodide staining based flow cytometry (reference value: 1.45 %); type: functional

COc1cc2c[n+](C)c3c4cc5c(cc4ccc3c2cc1OC)OCO5 [NITIDINE]
DC50 [1]: 1.05 µM | Kd [2]: 1.52 µM | inhibition [3]: Active | Activity [4]: inactive | Activity [5]: Active | Activity [6]: Active | Activity [7]: Active | inhibition [8]: Active | Activity [9]: Active | Activity [10]: 40.5% | DC50 [11]: 14.4 µM | DC50 [12]: 2.97 µM | Activity [13]: 2.03% | DC50 [14]: 9.08 µM | Activity [15]: Active | DC50 [16]: 10.8 µM | DC50 [17]: 0.59 µM | Activity [18]: 30.21% | DC50 [19]: 1.98 µM | Activity [20]: 29.3% | Activity [21]: Active | Activity [22]: Active | Activity [23]: inactive | Activity [24]: Active | DC50 [25]: 0.99 µM | Activity [26]: 60.4% | DC50 [27]: 15.5 µM | viability at 5 µM [28]: 30.8% | Activity [29]: Active | Activity [30]: 6.7%

Source: ChEMBL document CHEMBL5579888, “A Comparative Study on the DNA Interactions and Biological Activities of Benzophenanthridine and Protoberberine Alkaloids” (J Nat Prod, 2024)
